The target of data set [1] is cGMP-specific 3',5'-cyclic phosphodiesterase (Homo sapiens, UniProt O76074). Put plainly: Displacement of [3H]cAMP from PDE5A1 by competitive binding assay. (Loss of bound radioactivity is the signal in a displacement assay; it reports binding, not function.)
The target in data set [2] is cAMP and cAMP-inhibited cGMP 3',5'-cyclic phosphodiesterase 10A (Homo sapiens, UniProt Q9Y233). Put plainly: Displacement of [3H]cAMP from human recombinant PDE10A1 by competitive binding assay.
Data set [3] relates to Rattus norvegicus. As to the kind of experiment: Antipsychotic activity in rat schizophrenia model assessed as inhibition of MK801-induced hyperactivity at 10 mg/kg, po. The class given is functional.
Data set [4] has as its system Rattus norvegicus. Put plainly: Antipsychotic activity in rat schizophrenia model assessed as inhibition of MK801-induced hyperactivity at 3 mg/kg, po. The data set is classed as functional.
Data set [5] in a line: Displacement of [3H]cAMP from PDE6 by competitive binding assay.
Data set [6] relates to Rattus norvegicus. Put plainly: Antipsychotic activity in rat schizophrenia model assessed as inhibition of MK801-induced hyperactivity at 30 mg/kg, po. The data set is classed as functional. The arrangement: scale not given: the % may be the effect or the level left.
Data set [7] has as its system Rattus norvegicus. Put plainly: Antipsychotic activity in orally dosed rat schizophrenia model assessed as inhibition of MK801-induced hyperactivity. The class given is functional. The note with it: po, read-out: MED.
Data set [8] can be described thus: Clearance in monkey hepatocytes assessed per million cells. The class given is ADME, cell-based, Macaca mulatta, Hepatocyte. The note with it: rhesus monkey, read-out: CLH.
The nature of data set [9]: Protein binding in rat. The data set is classed as ADME, organism-based. As to conditions: plasma, read-out: PB (converted).
Another data set has as its target Cytochrome P450 2C9 (Homo sapiens, UniProt P11712). As to the kind of experiment: Inhibition of CYP2C9 up to 20 uM. The data set is classed as ADME.
The nature of data set [10]: Clearance in human hepatocytes assessed per million cells. The data set is classed as ADME, cell-based, Hepatocyte. The note with it: read-out: CLH.
Data set [11] is described as follows: Drug level in rat brain after 6 hrs. The class given is ADME, organism-based. As to conditions: read-out: Ct.
Data set [12] in a line: Clearance in rat hepatocytes assessed per million cells. As to conditions: read-out: CLH. The data set is classed as ADME, cell-based, Hepatocyte.
The target in a further data set is Cytochrome P450 2D6 (Homo sapiens, UniProt P10635). Put plainly: Inhibition of CYP2D6 up to 20 uM. The class given is ADME.
The species entered for data set [13] is Rattus norvegicus. As to the kind of experiment: Ratio of drug level in brain to plasma in rat after 6 hrs. The data set is classed as ADME, organism-based.
In another data set the target is Cytochrome P450 3A4 (Homo sapiens, UniProt P08684). As to the kind of experiment: Inhibition of CYP3A4 up to 20 uM. The class given is ADME.
The subject of data set [14] is Rattus norvegicus. As to the kind of experiment: Toxicity in orally dosed rat schizophrenia model assessed as induction of hypolocomotion. The class given is organism-based. The note with it: in vivo, po.
A further data set concerns the target hERG (KCNH2) (Homo sapiens, UniProt Q12809). Put plainly: Inhibition of human ERG at 10 uM.
Data set [15] concerns the target High affinity cGMP-specific 3',5'-cyclic phosphodiesterase 9A (Homo sapiens, UniProt O76083). Put plainly: Displacement of [3H]cAMP from PDE9A1 by competitive binding assay.
The target in data set [16] is cGMP-dependent 3',5'-cyclic phosphodiesterase (Homo sapiens, UniProt O00408). Put plainly: Displacement of [3H]cAMP from PDE2A by competitive binding assay.
Data set [17] addresses High affinity 3',5'-cyclic-AMP phosphodiesterase 7A (Homo sapiens, UniProt Q13946). As to the kind of experiment: Displacement of [3H]cAMP from PDE7A1 by competitive binding assay.
Data set [18] has as its target High affinity cAMP-specific and IBMX-insensitive 3',5'-cyclic phosphodiesterase 8A (Homo sapiens, UniProt O60658). As to the kind of experiment: Displacement of [3H]cAMP from PDE8A1 by competitive binding assay.
Data set [19] concerns the target Dual specificity calcium/calmodulin-dependent 3',5'-cyclic nucleotide phosphodiesterase 1A (Homo sapiens, UniProt P54750). Put plainly: Displacement of [3H]cAMP from PDE1A3 by competitive binding assay.
The target of data set [20] is 3',5'-cyclic-AMP phosphodiesterase 4B (Homo sapiens, UniProt Q07343). Put plainly: Displacement of [3H]cAMP from PDE4B2 by competitive binding assay.
Data set [21] deals with cGMP-inhibited 3',5'-cyclic phosphodiesterase 3A (Homo sapiens, UniProt Q14432). Put plainly: Displacement of [3H]cAMP from PDE3A by competitive binding assay.

Each structure is given as a SMILES string. Activity calls are given as the source filed them. No cut-off for these calls is given here.

Chain of cAMP and cAMP-inhibited cGMP 3',5'-cyclic phosphodiesterase 10A (Q9Y233 whole entry): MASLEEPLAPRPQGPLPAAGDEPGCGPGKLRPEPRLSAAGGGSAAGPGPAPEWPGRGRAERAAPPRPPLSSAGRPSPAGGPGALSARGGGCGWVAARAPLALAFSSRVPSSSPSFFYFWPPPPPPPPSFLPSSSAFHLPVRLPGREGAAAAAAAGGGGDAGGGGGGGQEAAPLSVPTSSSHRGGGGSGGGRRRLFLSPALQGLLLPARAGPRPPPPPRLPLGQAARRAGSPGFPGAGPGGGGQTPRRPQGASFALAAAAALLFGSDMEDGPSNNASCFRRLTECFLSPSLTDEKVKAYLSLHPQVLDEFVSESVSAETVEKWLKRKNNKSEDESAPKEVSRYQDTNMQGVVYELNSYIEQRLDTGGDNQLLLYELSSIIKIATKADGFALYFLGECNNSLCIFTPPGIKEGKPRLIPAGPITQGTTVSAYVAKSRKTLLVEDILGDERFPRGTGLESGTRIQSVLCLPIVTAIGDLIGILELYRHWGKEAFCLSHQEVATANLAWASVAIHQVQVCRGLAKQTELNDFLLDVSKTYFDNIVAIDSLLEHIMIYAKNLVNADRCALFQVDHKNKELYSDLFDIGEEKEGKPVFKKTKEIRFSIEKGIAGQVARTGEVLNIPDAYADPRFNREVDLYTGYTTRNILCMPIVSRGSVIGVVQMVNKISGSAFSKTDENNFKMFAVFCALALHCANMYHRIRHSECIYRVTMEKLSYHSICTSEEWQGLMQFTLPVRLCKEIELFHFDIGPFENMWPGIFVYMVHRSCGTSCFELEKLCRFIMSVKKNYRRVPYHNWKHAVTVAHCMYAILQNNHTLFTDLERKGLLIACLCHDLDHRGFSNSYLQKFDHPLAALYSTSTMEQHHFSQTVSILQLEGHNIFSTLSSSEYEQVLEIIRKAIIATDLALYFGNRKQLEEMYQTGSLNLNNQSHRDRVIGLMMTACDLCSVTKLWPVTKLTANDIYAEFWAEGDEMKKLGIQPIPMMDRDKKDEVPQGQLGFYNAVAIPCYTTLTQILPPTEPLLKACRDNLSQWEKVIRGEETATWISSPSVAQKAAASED
Chain of High affinity 3',5'-cyclic-AMP phosphodiesterase 7A (Q13946 whole entry): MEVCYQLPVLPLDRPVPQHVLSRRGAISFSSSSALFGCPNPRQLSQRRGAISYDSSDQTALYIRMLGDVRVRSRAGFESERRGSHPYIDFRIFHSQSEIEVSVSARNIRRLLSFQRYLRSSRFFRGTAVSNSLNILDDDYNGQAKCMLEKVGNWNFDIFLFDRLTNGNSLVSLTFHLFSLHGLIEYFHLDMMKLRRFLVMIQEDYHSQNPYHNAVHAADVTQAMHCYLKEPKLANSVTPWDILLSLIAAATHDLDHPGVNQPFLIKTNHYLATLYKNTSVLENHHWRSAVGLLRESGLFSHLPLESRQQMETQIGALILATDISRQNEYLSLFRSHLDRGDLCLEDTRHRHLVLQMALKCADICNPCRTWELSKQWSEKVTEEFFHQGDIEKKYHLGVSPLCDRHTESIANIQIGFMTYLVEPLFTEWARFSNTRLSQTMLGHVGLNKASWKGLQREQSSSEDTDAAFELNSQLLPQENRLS
Chain of Cytochrome P450 2D6 (P10635 whole entry): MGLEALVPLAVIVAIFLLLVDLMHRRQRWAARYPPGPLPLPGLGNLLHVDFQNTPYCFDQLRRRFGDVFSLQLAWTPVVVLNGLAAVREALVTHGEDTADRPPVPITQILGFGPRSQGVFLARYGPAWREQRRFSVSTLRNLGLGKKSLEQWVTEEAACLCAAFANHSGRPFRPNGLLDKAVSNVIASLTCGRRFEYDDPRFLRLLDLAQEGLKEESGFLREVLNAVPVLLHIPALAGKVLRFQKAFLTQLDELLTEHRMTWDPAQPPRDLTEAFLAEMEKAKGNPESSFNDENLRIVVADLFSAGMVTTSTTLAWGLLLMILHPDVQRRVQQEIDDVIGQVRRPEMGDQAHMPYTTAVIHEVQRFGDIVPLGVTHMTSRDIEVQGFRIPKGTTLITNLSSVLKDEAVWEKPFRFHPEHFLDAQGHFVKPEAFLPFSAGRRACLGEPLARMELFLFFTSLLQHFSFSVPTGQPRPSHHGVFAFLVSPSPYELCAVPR
Chain of hERG (KCNH2) (Q12809 whole entry): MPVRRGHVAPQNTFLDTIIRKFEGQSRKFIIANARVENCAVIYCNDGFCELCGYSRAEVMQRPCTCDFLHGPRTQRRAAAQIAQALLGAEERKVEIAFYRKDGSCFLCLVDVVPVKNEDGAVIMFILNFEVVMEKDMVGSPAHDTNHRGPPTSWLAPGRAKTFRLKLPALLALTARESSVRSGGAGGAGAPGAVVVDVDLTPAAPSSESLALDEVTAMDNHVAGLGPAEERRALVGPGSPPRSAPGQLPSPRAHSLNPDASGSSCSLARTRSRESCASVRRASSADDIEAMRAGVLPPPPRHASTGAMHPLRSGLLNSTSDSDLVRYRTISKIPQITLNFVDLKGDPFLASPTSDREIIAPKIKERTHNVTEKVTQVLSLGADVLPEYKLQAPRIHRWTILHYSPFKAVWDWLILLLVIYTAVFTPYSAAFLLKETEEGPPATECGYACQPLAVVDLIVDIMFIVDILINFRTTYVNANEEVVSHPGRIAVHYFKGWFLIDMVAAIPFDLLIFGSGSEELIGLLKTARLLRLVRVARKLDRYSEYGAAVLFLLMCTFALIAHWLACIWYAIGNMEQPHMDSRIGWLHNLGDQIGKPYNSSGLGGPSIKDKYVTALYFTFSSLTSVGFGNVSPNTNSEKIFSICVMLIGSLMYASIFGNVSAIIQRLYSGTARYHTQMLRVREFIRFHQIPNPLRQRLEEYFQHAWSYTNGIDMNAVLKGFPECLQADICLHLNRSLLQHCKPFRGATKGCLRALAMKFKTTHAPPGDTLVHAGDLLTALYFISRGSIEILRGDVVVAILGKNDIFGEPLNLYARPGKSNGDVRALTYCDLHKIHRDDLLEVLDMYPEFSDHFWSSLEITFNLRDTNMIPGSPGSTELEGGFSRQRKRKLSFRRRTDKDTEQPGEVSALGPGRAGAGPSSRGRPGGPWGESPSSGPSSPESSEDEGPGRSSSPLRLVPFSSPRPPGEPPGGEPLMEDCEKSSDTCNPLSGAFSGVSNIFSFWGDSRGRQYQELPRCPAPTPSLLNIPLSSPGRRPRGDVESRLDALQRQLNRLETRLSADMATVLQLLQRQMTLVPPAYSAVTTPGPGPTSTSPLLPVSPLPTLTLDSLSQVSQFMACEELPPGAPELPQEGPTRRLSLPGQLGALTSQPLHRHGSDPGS
Chain of cGMP-inhibited 3',5'-cyclic phosphodiesterase 3A (Q14432 whole entry): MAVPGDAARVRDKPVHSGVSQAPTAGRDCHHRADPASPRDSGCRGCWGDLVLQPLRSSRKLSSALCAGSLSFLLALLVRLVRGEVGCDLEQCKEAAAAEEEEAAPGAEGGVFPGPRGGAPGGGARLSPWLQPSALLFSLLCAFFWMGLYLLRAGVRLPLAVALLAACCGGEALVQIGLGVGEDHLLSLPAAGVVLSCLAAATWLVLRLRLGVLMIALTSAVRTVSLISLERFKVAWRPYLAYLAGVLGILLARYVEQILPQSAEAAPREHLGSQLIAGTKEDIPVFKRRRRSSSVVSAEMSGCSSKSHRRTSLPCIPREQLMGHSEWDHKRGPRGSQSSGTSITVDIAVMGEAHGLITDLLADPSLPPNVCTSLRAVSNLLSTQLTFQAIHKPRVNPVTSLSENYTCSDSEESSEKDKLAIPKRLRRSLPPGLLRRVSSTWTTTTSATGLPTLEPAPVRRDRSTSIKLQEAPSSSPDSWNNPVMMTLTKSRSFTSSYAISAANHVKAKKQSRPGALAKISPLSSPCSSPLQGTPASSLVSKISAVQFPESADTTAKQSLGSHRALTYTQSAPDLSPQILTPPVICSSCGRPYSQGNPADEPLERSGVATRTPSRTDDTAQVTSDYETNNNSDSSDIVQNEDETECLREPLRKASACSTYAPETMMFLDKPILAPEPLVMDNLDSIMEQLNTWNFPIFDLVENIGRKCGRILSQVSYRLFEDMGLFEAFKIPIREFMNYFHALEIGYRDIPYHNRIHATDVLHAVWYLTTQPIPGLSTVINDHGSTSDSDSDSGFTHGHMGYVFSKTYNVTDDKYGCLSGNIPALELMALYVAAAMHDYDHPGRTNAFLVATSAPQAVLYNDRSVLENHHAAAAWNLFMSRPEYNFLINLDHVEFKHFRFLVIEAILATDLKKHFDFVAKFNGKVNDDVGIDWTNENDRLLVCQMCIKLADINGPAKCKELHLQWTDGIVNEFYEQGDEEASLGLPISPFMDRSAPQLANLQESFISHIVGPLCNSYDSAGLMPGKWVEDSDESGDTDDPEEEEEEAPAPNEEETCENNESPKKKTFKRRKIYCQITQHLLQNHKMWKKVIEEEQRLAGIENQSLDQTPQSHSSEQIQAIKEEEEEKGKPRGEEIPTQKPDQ
Chain of Cytochrome P450 3A4 (P08684 whole entry): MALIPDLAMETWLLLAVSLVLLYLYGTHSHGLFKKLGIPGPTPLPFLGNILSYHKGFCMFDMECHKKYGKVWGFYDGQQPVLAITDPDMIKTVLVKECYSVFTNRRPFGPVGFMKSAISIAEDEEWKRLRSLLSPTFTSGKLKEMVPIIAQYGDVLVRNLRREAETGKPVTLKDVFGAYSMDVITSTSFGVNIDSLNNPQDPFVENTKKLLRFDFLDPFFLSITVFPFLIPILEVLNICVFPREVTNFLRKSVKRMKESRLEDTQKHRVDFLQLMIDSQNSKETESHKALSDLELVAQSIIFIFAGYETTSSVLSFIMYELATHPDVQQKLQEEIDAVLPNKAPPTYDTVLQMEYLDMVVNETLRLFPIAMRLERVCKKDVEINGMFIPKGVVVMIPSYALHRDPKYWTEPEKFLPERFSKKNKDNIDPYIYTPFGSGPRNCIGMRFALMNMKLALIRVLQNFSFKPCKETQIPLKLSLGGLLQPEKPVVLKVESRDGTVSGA

Turning to `COc1cc(C)c2nc3[nH]nc(C)c3c(CN3CC[C@@H](O)C3)c2c1`, the results for the Ki in data set [1], in [2] and in data set [5] were 6400 nM, 3 nM and 4700 nM, respectively. For the same molecule, the outcome in the data set on Rattus norvegicus [3] and in the data set on Rattus norvegicus [4] was inactive. The Activity in the data set on Rattus norvegicus [6] is listed as 102%.

For `Cc1cc(OC(C)C)cc2c(CN3CCCOCC3)c3c(C)n[nH]c3nc12`, the Ki in [2] is 8 nM.

As to `COc1cc(C)c2nc3[nH]nc(C)c3c(CN3CCNCC3)c2c1`, the Ki in data set [2] came to 49 nM. In addition, the result with Rattus norvegicus [6] was inactive.

For the molecule `COc1cc(OC)c2nc3[nH]nc(C)c3c(CN3CCCOCC3)c2c1`, the Ki in [2] worked out at 14 nM.

Consider `Cc1cc(Cl)cc2c(CN3CCCOCC3)c3c(C)n[nH]c3nc12`, for which the Ki in data set [2] was found to be 41 nM. Also, the outcome with Rattus norvegicus [3] and with Rattus norvegicus [4] was inactive. In addition, the Activity with Rattus norvegicus [6] is recorded as 87%.

For the molecule `COc1cc(C)c2nc3[nH]nc(C)c3c(CN3CCCC3)c2c1`, in data set [2], the Ki worked out at 24 nM. The Activity with Rattus norvegicus [3] stood at 107%; with Rattus norvegicus [4], 96%; in the data set with Rattus norvegicus [6] it was 122%. The minimal effective dose in the data set on Rattus norvegicus [7] was 1 mg/kg.

For the molecule `Cc1n[nH]c2nc3ccc(C(F)(F)F)cc3c(CN3CCCOCC3)c12`, the Ki in [2] is 104 nM.

As to `COc1cc(C)c2nc3[nH]nc(C)c3c(CN3CC4CC3CO4)c2c1` (stereo not drawn), in [2], the Ki worked out at 46 nM.

For the molecule `COc1cc(C)c2nc3[nH]nc(C)c3c(CN3CCC(C(F)(F)F)CC3)c2c1`, in [2], the Ki was 871 nM.

Regarding `COc1cc(C)c2nc3[nH]nc(C)c3c(CN3CCOCC3)c2c1`, the Ki was determined as 10600 nM in data set [1] and 2000 nM in [5]. For the same molecule, the values for the Activity in the data set with Rattus norvegicus [3] and with Rattus norvegicus [6] were 131% and 109%, respectively. For the same molecule, the result with Rattus norvegicus [4] was inactive.

For the molecule `COc1cc(C)c2nc3[nH]nc(C)c3c(CN3C[C@@H](C)O[C@@H](C)C3)c2c1`, the Ki in [2] is 26 nM.

As to `Cc1n[nH]c2nc3c(OC(F)(F)F)cc(Br)cc3c(CN3CCCOCC3)c12`, the Ki in data set [2] amounted to 37 nM.

In the case of `COc1cc(C)c2nc3[nH]nc(C)c3c(CN3CCCC(C(F)(F)F)C3)c2c1` (stereo not drawn), the Ki in data set [2] was 353 nM.

As to `COc1ccc2nc3[nH]nc(C)c3c(CN3CCCOCC3)c2c1`, the Ki in data set [2] came out at 153 nM.

Consider `COc1cc(C)c2nc3[nH]nc(C)c3c(CN3CCC(O)CC3)c2c1`, for which, in [2], the Ki is 57 nM. The outcome with Rattus norvegicus [3] and in the data set on Rattus norvegicus [4] was inactive. For the same molecule, the Activity with Rattus norvegicus [6] is 136%.

`COc1cc(C)c2nc3[nH]nc(C)c3c(CN3C4CCC3CC4)c2c1`: the Ki in data set [2] came to 1200 nM.

As to `COc1cc(C)c2nc3[nH]nc(C)c3c(CN3CCOC(CO)C3)c2c1` (stereo not drawn), the Ki turned out to be 5000 nM in data set [1], 0.6 nM in data set [2] and 300 nM in data set [5]. For the same molecule, the result in the data set with Rattus norvegicus [3] and in the data set on Rattus norvegicus [4] was inactive. Also, the Activity in the data set on Rattus norvegicus [6] is recorded as 104%.

As for `COc1cc(C)c2nc3[nH]nc(C)c3c(CN3[C@@H]4CC[C@H]3C[C@@H](O)C4)c2c1`, the Ki in data set [2] is 265 nM.

With `COc1cc(C)c2nc3[nH]nc(C)c3c(CN3CCCOCC3)c2c1`, the figures for the Ki in data set [1] and in data set [5] were 9700 nM and 2100 nM, respectively. Further, the hepatocyte CLint in [8] is 6 µL/min/1e6 cells; in [10], 8.3 µL/min/1e6 cells; in [12], below 1 µL/min/1e6 cells. Further, the fraction unbound in [9] was 0.03. The Activity in the data set on Rattus norvegicus [3] is recorded as 120%; with Rattus norvegicus [4], 66%; in the data set with Rattus norvegicus [6] it was 103%. Further, the “inhibition (INH)” value against Cytochrome P450 2C9, against Cytochrome P450 2D6 and at Cytochrome P450 3A4 was “Not Active” throughout. Also, the concentration at 6 h in data set [11] was found to be 42 ng/g. The BPR in the data set filed under Rattus norvegicus [13] worked out at 1.56. Also, the minimal effective dose in the data set with Rattus norvegicus [7] was determined as 3 mg/kg. Also, in the data set on Rattus norvegicus [14], the MED came out at 30 mg/kg. Moreover, at 10 µM the inhibition on hERG (KCNH2) was 5.3%.

For `COc1cc(C)c2nc3[nH]nc(C)c3c(CN3CCN[C@H](C)C3)c2c1`, the Ki in data set [2] is 30 nM. The result in the data set on Rattus norvegicus [6] was inactive.

Consider `COc1cc(C)c2nc3[nH]nc(C)c3c(CN3CCC(CO)C3)c2c1` (stereo not drawn), for which the Ki in data set [2] was 32 nM. Besides, the outcome with Rattus norvegicus [3] and in the data set on Rattus norvegicus [4] was inactive. Moreover, the Activity in the data set on Rattus norvegicus [6] is reported as 38%.

As for `Cc1cc(Cl)cc2c(CN3CC4CC3CO4)c3c(C)n[nH]c3nc12` (stereo not drawn), the Ki in data set [2] was 60 nM.

As for `COc1cc(C)c2nc3[nH]nc(C)c3c(CN3CCC(F)CC3)c2c1`, the Ki in [2] was determined as 202 nM.

On to `COCCOc1cc(C)c2nc3[nH]nc(C)c3c(CN3CCCOCC3)c2c1`, for which the Ki in data set [1] is 24400 nM; in [15], above 10000 nM; in data set [2], 1 nM; in [16] it was above 10000 nM; in [17], above 10000 nM; in [18], above 10000 nM. In addition, the Ki is 5900 nM in data set [5], above 10000 nM in data set [19], above 10000 nM in [20] and above 10000 nM in data set [21].

For the molecule `Cc1cc(O)cc2c(CN3CCCOCC3)c3c(C)n[nH]c3nc12`, the Ki in data set [1] was found to be 20800 nM; in data set [2] it was 2 nM; in data set [5], 2400 nM.

On to `COc1cc(C)c2nc3[nH]nc(C)c3c(CN3CCOC(C)C3)c2c1` (stereo not drawn), for which the Ki was determined as 8900 nM in data set [1], 3 nM in data set [2] and 8300 nM in data set [5]. Moreover, the Activity in the data set on Rattus norvegicus [3] came out at 88%; in the data set with Rattus norvegicus [6], 130%. In addition, in the data set on Rattus norvegicus [4], the outcome was inactive.

Consider `Cc1cc(OC(F)(F)F)cc2c(CN3CCCOCC3)c3c(C)n[nH]c3nc12`, for which the Ki in data set [2] is 19 nM.

For `Cc1cc(Cl)cc2c(CN3C4CCC3CC4)c3c(C)n[nH]c3nc12`, in data set [2], the Ki was 229 nM.

Consider `COc1cc(C)c2nc3[nH]nc(C)c3c(CN3CCOC(C)(C)C3)c2c1`, for which, in data set [2], the Ki stood at 171 nM.

On to `COc1cc(C)c2nc3[nH]nc(C)c3c(CN3CCNC(=O)C3)c2c1`, for which the Ki in [2] came to 9 nM. Also, in the data set on Rattus norvegicus [6], the outcome was inactive.

`COc1cc(C)c2nc3[nH]nc(C)c3c(CN3CCCCC3)c2c1`: in [2], the Ki came out at 804 nM.

As usually defined, the Ki is the equilibrium dissociation constant of an inhibitor or competing ligand from its target. The term inhibition denotes the change of the read-out against control, counted positive when it falls.

(Values after ChEMBL document CHEMBL1938364, “Discovery of orally active pyrazoloquinolines as potent PDE10 inhibitors for the management of schizophrenia” (Bioorg Med Chem Lett, 2012).)
